In experiment [1] the test system is Elektroschock-induzierte Konvulsionen. Description: Protection against electroshock-induced convulsions (mouse). The format is in vivo. The following applies: po, Maus, read-out: ED₅₀. The text has this: (§1) Die neuen Verbindungen besitzen wertvolle pharmakologische Eigenschaften, insbesondere eine ausgeprägte antikonvulsive Wirksamkeit mit neuartigem Wirkungsspektrum. Die ausgezeichnete antikonvulsive Wirksamkeit der erfindungsgemäss bereitgestellten Verbindungen zeigt sich insbesondere an Primaten. […] Das neuartige Wirkungsspektrum der erfindungsgemässen Verbindungen kann beispielsweise durch ihr Verhalten in den nachstehenden pharmakologischen und biochemischen Epilepsiemodellen charakterisiert werden: • 1) Schutzwirkung gegen Elektroschock-induzierte Konvulsionen (Maus, Ratte): deutliche Aktivität in Dosen ab etwa 30 mg/kg p.o., für z.B. 5-Amino-1-(4-hexyl)-1M-1,2,3-triazol-4-carboxamid ED₅₀ = 100 mg/kg p.o. (Maus) bzw. […] Wirkung auf die GABA-Neuro-transmission und kein nachweisbarer Einfluss auf den GABA-Kata-bolismus; • 6) Kindling-Epilepsiemodell (Ratte): die Entwicklung sowohl der Nachentladung als auch der Symptomatologie wird stark verlangsamt.

The test system is the same in experiment [2]. The experiment can be described thus: Protection against electroshock-induced convulsions (rat). The format is in vivo. As to conditions: po, Ratte, read-out: ED₅₀.
Text: as §1

The next experiment relates to Metrazol-Antagonismus. The experiment can be described thus: Metrazol antagonism in the mouse. The format is in vivo. As to conditions: po, Maus, read-out: ED₅₀.
Text: as §1

Experiment [3] deals with Picrotoxin-induzierte Konvulsionen. Description: Protection against picrotoxin-induced convulsions. The format is in vivo. The following applies: Maus, doses up to and including 300 mg/kg p.o.
Text: as §1

Experiment [4] concerns experimentellen Strychninkrampf. Description: Protection against experimental strychnine convulsions. The format is in vivo, Maus. The following applies: Mus musculus, po, read-out: ED₅₀.
Text: as §1

For experiment [5], the system named is durch Aluminiumoxidimplantation erzeugten fokalen Konvulsionen. The experiment can be described thus: Focal convulsions produced by aluminium oxide implantation in the rhesus monkey. As to conditions: daily doses of 50 mg/kg p.o., over the whole 15-day treatment. The experiment is classed as in vivo, Rhesusaffen.
Text: as §1

Consider two compounds from EP0229011A1, “Trisubstituted triazoles” (CIBA-GEIGY AG, priority 1986, dated 1987).

SMILES strings stand for the structures.

Turning to `CCCC(CC)n1nnc(C(N)=O)c1N` (stereo not shown) [5-Amino-1-(4-hexyl)-1H-1,2,3-triazol-4-carboxamid], the ED50 in experiment [1] amounted to 100 mg/kg; in experiment [2], 50 mg/kg; in the experiment with Metrazol-Antagonismus, 210 mg/kg; in experiment [4] it was 300 mg/kg. The “Schutzwirkung gegen Picrotoxin-induzierte Konvulsionen” value in experiment [3] was “keine Wirkung feststellbar”.

As to `CCCC(CCC)n1nnc(C(N)=O)c1N` [Beispiel 1, 5-Amino-1-(4-heptyl)-1H-1,2,3-triazol-4-carboxamid], in experiment [5], the “Anzahl der fokalen Konvulsionen” value is recorded as “starke Abnahme” and the “Intensität der fokalen Konvulsionen” value was “starke Abnahme”.
